Measurements taken from patent publication US5225528A, “Cyclic hexapeptide oxytocin antagonists” (priority 1990, dated 1993).
Read-outs that look alike come from different tables or passages of the source. Numbered stars: 1 amine (or outer) side, 2 acyl side, 3 side chain; on linkers, the order of the positions; unused ones are H or OH. Square brackets hold non-standard residues; d marks the D form. Peptide text beside a SMILES is read from it. * marks the point of attachment. X2 = O=C(OCc1ccccc1)N1CCN([*:1])[C@H](C(=O)[*:2])C1; X5 = CC(C)(C)OC(=O)CN1CCN([*:1])[C@H](C(=O)[*:2])C1; d2Nal = N[C@H](Cc1ccc2ccccc2c1)C(=O)O; dNMeY = CN[C@H](Cc1ccc(O)cc1)C(=O)O; d(hPhe) = N[C@H](CCc1ccccc1)C(=O)O; dNMeH = CN[C@H](Cc1c[nH]cn1)C(=O)O; X1 = O=C([C@H]1C=CCCN1[*:1])[*:2]; X6 = O=C([C@H]1CCCNN1[*:1])[*:2]; dNMeF = CN[C@H](Cc1ccccc1)C(=O)O; Pip = O=C(O)[C@@H]1CCCCN1; dPip = O=C(O)[C@H]1CCCCN1; Nle = CCCC[C@H](N)C(=O)O; Orn = NCCC[C@H](N)C(=O)O; dNMeA = CN[C@H](C)C(=O)O; Boc = CC(C)(C)OC(=O)*

Experiments:
uterine OT receptors = biological target: T1, uterine OT receptors (Rattus norvegicus, UniProt P70536); test: [^3 H]OT binding to uterine OT receptors, crude membrane preparation of uteri from DES-treated rats; settings: for inhibition at 0.1 µM: @ 100 (nM); for IC50: rat uterus membranes, 1 nM [^3 H]OT, read-out: Receptor Binding Results IC50 (nM) [^3 H]OT
T1 construct: from tissue; host or cells: uterus of DES-treated rats, crude membranes
T1 sequence (P70536 1-388): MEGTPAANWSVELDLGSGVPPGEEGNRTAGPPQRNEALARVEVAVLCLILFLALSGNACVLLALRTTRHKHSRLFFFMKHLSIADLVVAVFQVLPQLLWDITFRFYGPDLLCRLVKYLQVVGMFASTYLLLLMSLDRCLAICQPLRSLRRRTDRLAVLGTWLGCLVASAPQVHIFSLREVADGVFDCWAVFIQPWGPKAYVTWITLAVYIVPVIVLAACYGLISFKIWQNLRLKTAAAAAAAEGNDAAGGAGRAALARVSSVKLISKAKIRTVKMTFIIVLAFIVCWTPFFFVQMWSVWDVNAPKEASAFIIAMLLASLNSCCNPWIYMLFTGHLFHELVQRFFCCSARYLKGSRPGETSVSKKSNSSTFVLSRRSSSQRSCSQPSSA
Description: Competition studies were conducted at equilibrium (60 minutes; 22° C.) using 1 nM [^3 H]OT in the following assay buffer: 50 mM Tris-HCl, 5 mM MgCl2, and 0.1% BSA, pH 7.4.

AVP-V1 sites = biological target: T2, AVP-V1 sites (Rattus norvegicus, UniProt P30560); test: [^3 H]AVP binding to crude membrane preparation of male rat liver (AVP-V1 sites)
T2 construct: crude membrane preparation of male rat liver (AVP-V1 sites); from tissue; host or cells: male rat liver, crude membranes
T2 sequence (P30560 whole entry): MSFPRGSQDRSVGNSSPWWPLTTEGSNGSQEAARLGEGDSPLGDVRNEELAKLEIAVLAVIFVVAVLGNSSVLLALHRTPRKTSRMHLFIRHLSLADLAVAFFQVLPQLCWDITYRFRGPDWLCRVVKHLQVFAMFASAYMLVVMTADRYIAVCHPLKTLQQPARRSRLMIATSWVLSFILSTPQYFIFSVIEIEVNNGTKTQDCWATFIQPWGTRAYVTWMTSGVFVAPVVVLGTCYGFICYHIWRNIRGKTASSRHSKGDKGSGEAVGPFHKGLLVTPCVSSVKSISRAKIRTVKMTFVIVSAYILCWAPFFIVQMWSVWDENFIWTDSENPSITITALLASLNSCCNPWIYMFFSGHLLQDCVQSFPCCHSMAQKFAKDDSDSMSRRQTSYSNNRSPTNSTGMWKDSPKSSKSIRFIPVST
Description: (§1) Nonspecific binding (5-10% of the total binding) was determined using 10 μM unlabeled AVP, and the binding reaction was terminated by filtration as described above for the [^3 H]OT binding assay.

AVP-V2 sites = biological target: T3, AVP-V2 sites (Rattus norvegicus, UniProt Q00788); test: [^3 H]AVP binding to crude membrane preparation of male rat kidney medulla (AVP-V2 sites)
T3 construct: male rat liver (AVP-V1 sites) or kidney medulla (AVP-V2 sites); from tissue; host or cells: male rat kidney medulla, crude membranes
T3 sequence (Q00788 whole entry): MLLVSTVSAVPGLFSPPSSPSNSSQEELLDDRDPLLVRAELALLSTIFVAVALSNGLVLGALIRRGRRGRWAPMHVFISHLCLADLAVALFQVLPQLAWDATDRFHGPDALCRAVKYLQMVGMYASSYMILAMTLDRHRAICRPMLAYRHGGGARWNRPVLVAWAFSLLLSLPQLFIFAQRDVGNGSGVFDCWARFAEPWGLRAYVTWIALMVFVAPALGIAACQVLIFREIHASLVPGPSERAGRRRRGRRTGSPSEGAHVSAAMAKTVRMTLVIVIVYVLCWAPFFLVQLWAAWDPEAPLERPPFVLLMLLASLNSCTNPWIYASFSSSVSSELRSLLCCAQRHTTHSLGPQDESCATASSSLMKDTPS
Description: as §1

[1] = 1 h, read-out: [^3 H]OT: percent inhibition of radioligand at the given concentration
[2] = Receptor Binding Results IC50 (nM) [^3 H]-AVP-V1
[3] = Receptor Binding Results IC50 (nM) [^3 H]-AVP-V2
[4] = read-out: Receptor Binding Results IC50 (nM) [^3 H]-AVP-V1
[5] = rat kidney medulla membranes, 2 nM [^3 H]AVP, read-out: Receptor Binding Results IC50 (nM) [^3 H]-AVP-V2
[6] = read-out: Receptor Binding Results IC50 (nM) [^3 H]-AVP-V2

Row | SMILES | IC50 (AVP-V1 sites; [2]) | IC50 (uterine OT receptors) | IC50 (AVP-V2 sites; [5]) | further results
1 | CC[C@H](C)[C@@H]1NC(=O)[C@@H](Cc2ccccc2)NC(=O)[C@@H]2CCCN2C(=O)[C@@H](Cc2ccc(O)cc2)N(C)C(=O)[C@@H]2CCCCN2C(=O)[C@H]2CCCCN2C1=O [Example 46, Cyclo[D-phenylalanyl-L-isoleucyl-D-pipecolyl-L-pipecolyl-D-(N^α Methyl)tyrosyl-L-prolyl]] (cyclo(I[dPip][Pip][dNMeY]P[dF])) | 10000 nM | – | – | inhibition at 0.1 µM (uterine OT receptors; [1]): 60%; IC50 (AVP-V2 sites; [3]): > 1000 nM
2 | CC[C@H](C)[C@@H]1NC(=O)[C@@H](Cc2c[nH]c3ccccc23)NC(=O)[C@@H]2CCCN2C(=O)[C@@H](Cc2c[nH]cn2)N(C)C(=O)[C@@H]2CCCCN2C(=O)[C@H]2CCCCN2C1=O [Example 19, Cyclo[D-tryptophanyl-L-isoleucyl-D-pipecolyl-L-pipecolyl-D-(N^α methyl)histidyl-L-prolyl]] (cyclo(I[dPip][Pip][dNMeH]P[dW])) | – | 18 nM | 4330 nM | IC50 (AVP-V1 sites; [4]): 13700 nM
3 | CC[C@H](C)[C@@H]1NC(=O)[C@@H](Cc2ccccc2)NC(=O)[C@@H]2CCCN2C(=O)[C@@H](Cc2cnc[nH]2)NC(=O)[C@@H]2CCCCN2C(=O)[C@H]2CCCCN2C1=O [Example 3] (cyclo(I[dPip][Pip][dH]P[dF])) | – | 88 nM | 19000 nM | IC50 (AVP-V1 sites; [4]): 7300 nM
4 | CC[C@H](C)[C@@H]1NC(=O)[C@@H](Cc2c[nH]c3ccccc23)NC(=O)[C@@H]2CCCN2C(=O)[C@@H](Cc2ccccc2)N(C)C(=O)[C@@H]2CN(CC(=O)OC(C)(C)C)CCN2C(=O)[C@H]2CCCCN2C1=O [Example 180, C-[D-Tryptophanyl-L-isoleucinyl-D-pipecolyl-L-piperazin-2-yl (4-t-butylacetyl)-D-(N^α -Me)phenylalanyl-L-prolyl]] (cyclo([dW]I[dPip][X5][dNMeF]P)) | – | 150 nM | – | [^3 H]-AVP-V1: percent inhibition of radioligand at the given concentration (AVP-V1 sites; @ 10,000 (nM)): 44%; inhibition at 10 µM (AVP-V2 sites; 0.5 h, @ 10,000 (nM), read-out: [^3 H]-AVP-V2: percent inhibition of radioligand at the given concentration): 79%
5 | C[C@@H]1NC(=O)[C@@H](Cc2ccccc2)NC(=O)[C@@H]2CCCN2C(=O)[C@@H](Cc2ccccc2)N(C)C(=O)[C@@H]2CCCCN2C(=O)[C@H]2CCCCN2C1=O [Example 9, Cyclo[D-phenylalanyl-L-alanyl-D-pipecolyl-L-pipecolyl-D-(N^α methyl)phenylalanyl-L-prolyl]] (cyclo(A[dPip][Pip][dNMeF]P[dF])) | > 10000 nM | > 10000 nM | > 10000 nM | –
6 | CC[C@H](C)[C@@H]1NC(=O)[C@@H](Cc2ccccc2)NC(=O)[C@@H]2CCCN2C(=O)C(Cc2cccnc2)NC(=O)[C@@H]2CCCCN2C(=O)[C@H]2CCCCN2C1=O (single isomer, unassigned) [Example 10 (isomer 1), Cyclo[D-Phe-L-Ile-D-Pip-L-Pip-D,L-3-PyrAla-L-Pro]] | > 10000 nM | 1000 nM | > 10000 nM | –
7 | CC[C@H](C)[C@@H]1NC(=O)[C@@H](Cc2ccccc2)NC(=O)[C@@H]2CCCN2C(=O)[C@@H](Cc2ccccc2)N(C)C(=O)[C@@H]2CCCCN2C(=O)[C@H]2C=CCCN2C1=O [Example 24, Cyclo[D-phenylanyl-L-isoleucyl-D-(3,4-dehydro)-pipecolyl-L-pipecolyl-D-(N^α methyl)phenyalanyl-L-prolyl]] (cyclo(I[X1][Pip][dNMeF]P[dF])) | > 10000 nM | 640 nM | 10000 nM | –
8 | CC[C@H](C)[C@@H]1NC(=O)[C@@H](Cc2c[nH]c3ccccc23)NC(=O)[C@@H]2CCCN2C(=O)[C@@H](Cc2c[nH]cn2)NC(=O)[C@H](CCCNC(=O)OC(C)(C)C)NC(=O)[C@H]2CCCNN2C1=O [Example 128, c-[D-Tryptophanyl-L-isoleucyl-D-piperazyl(N^δ -Boc)-L-or nithyl-D-histidyl-L-prolyl]] (cyclo(I[X6][Orn](Boc)[dH]P[dW])) | 10000 nM | 118 nM | 10000 nM | –
9 | CC[C@H](C)[C@@H]1NC(=O)[C@@H](Cc2ccc3ccccc3c2)NC(=O)[C@@H]2CCCN2C(=O)[C@@H](Cc2ccccc2)N(C)C(=O)[C@@H]2CN(C(=O)OCc3ccccc3)CCN2C(=O)[C@H]2CCCCN2C1=O [Example 169, c-[D-2-Naphthylalanyl-L-isoleucinyl-D-pipecolyl-L-piperazin-2-yl(4-Cbz)-D-(Nα-methyl)-phenylalanyl-L-prolyl]] (cyclo(I[dPip][X2][dNMeF]P[d2Nal])) | > 10000 nM | – | 10000 nM | inhibition at 0.01 µM (uterine OT receptors; 1 h, @ 10 (nM), read-out: [^3 H]OT: percent inhibition of radioligand at the given concentration): 74%
10 | CC[C@H](C)[C@@H]1NC(=O)[C@@H](Cc2c[nH]c3ccccc23)NC(=O)[C@@H]2CCCN2C(=O)[C@@H](Cc2c[nH]c3ccccc23)NC(=O)[C@@H]2CN(CC(=O)OC(C)(C)C)CCN2C(=O)[C@H]2CCCCN2C1=O [Example 162, c-[D-Tryptophanyl-L-isoleucinyl-D-pipecolyl-L-piperazin-2-yl(4-t-butylacetyl)-D-tryptophanyl-L-prolyl]] (cyclo([dW]I[dPip][X5][dW]P)) | > 10000 nM | – | 10000 nM | inhibition at 0.1 µM (uterine OT receptors; [1]): 54%
11 | CC[C@H](C)[C@@H]1NC(=O)[C@@H](Cc2c[nH]c3ccccc23)NC(=O)[C@@H]2CCCN2C(=O)[C@@H](Cc2ccc(O)cc2)N(C)C(=O)[C@@H]2CCCCN2C(=O)[C@H]2CCCCN2C1=O [Example 137, c-[D-Tryptophanyl-L-isoleucyl-D-pipecolyl-L-pipecolyl-D-(N-methyl)tyrosyl-L-prolyl]] (cyclo(I[dPip][Pip][dNMeY]P[dW])) | – | 7.9 nM | – | IC50 (AVP-V1 sites; [4]): 9300 nM; IC50 (AVP-V2 sites; [6]): 245 nM
12 | CCCC[C@@H]1NC(=O)[C@@H](Cc2c[nH]c3ccccc23)NC(=O)[C@@H]2CCCN2C(=O)[C@@H](Cc2c[nH]cn2)NC(=O)[C@@H]2CCCCN2C(=O)[C@H]2CCCCN2C1=O [Example 20, Cyclo[D-tryptophanyl-L-Norleucyl-D-pipecolyl-L-pipecolyl-D-histidyl-L-prolyl]] (cyclo([Nle][dPip][Pip][dH]P[dW])) | > 1000 nM | 72 nM | – | IC50 (AVP-V2 sites; [3]): > 1000 nM
13 | CC[C@H](C)[C@@H]1NC(=O)[C@@H](CCc2ccccc2)NC(=O)[C@@H]2CCCN2C(=O)[C@@H](Cc2ccccc2)N(C)C(=O)[C@@H]2CCCCN2C(=O)[C@H]2CCCCN2C1=O [Example 165, c-[D-Homophenylalanyl-L-isoleucyl-D-pipecolyl-L-pipecolyl-N-Me-D-phenylalanyl-L-prolyl]] (cyclo(I[dPip][Pip][dNMeF]P[d(hPhe)])) | – | 150 nM | – | IC50 (AVP-V1 sites; [4]): 6600 nM; IC50 (AVP-V2 sites; [6]): 2600 nM
14 | CC[C@H](C)[C@@H]1NC(=O)[C@@H](Cc2ccccc2)NC(=O)[C@@H]2CCCN2C(=O)[C@@H](Cc2ccccc2)N(C)C(=O)[C@@H](C)N(C)C(=O)[C@H]2CCCCN2C1=O [Example 6, Cyclo[D-phenyalanyl-L-isoleucyl-D-pipecolyl-L-(N^α -methyl)alanyl-D-(N^α Methyl)phenylanyl-L-prolyl]] (cyclo([dF]I[dPip][dNMeA][dNMeF]P)) | > 10000 nM | 1800 nM | > 10000 nM | –
